7 compounds from patent publication US8309745B2, “Epigallocatechin dimers or trimers having lipase inhibitory activity and/or antioxidant activity” (Suntory Holdings Limited, priority 2004, dated 2012) can be followed below.

Test [1] deals with T1, swine pancreatic lipase (Sus scrofa, UniProt P00591).
T1 construct: purchased Sigma
T1 sequence (P00591 1-450): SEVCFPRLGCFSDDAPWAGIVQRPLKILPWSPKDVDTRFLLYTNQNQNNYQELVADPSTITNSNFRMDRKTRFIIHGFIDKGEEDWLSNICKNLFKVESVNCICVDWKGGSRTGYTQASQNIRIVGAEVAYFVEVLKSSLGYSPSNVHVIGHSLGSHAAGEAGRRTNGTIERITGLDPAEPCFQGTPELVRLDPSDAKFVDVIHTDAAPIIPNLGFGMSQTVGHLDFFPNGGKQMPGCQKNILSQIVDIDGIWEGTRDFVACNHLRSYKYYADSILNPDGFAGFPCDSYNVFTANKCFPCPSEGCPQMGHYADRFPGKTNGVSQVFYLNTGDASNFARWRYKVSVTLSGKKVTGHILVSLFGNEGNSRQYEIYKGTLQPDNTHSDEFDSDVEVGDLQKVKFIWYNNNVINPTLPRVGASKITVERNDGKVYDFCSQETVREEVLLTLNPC
The experiment in a line: Measurement of lipase inhibitory activity (4-UMO fluorescence assay). Type of test: biochemical. Conditions: for IC50: swine pancreatic lipase, 4-UMO substrate, pH 8.0, 30-minute reaction, read-out: Lipase Inhibitory Activities of Various Polyphenols IC50; for lipase inhibitory activity compared with EGCG: in words. The source says: Lipase inhibitory activity can be measured by any one of the lipase activity assays that are described in the prior applications mentioned in the Background Art. As for inhibitory activity against pancreatic lipase, an oleic ester of fluorescent 4-methylumbelliferone may be used as a substrate to measure the fluorescence from 4-methylumbelliferone that is formed by reaction with the lipase. The amount of a sample that provides 50% inhibition of lipase activity (IC50) may be substituted to express lipase inhibitory activity in accordance with the usual method.
For lipase activity measurement, an oleic ester of fluorescent 4-methylumbelliferone (4-UMO) was used as a substrate and the fluorescence from 4-methylumbelliferone formed by enzyme reaction was measured.
The buffer used in the measurement was 13 mM tris-HCl (pH 8.0) containing 150 mM NaCl and 1.36 mM CaCl2. The substrate 4-UMO (product of Sigma-Aldrich Co.) was prepared as 0.1 M solution in DMSO and then diluted 1,000-fold with the buffer. The lipase subjected to enzyme measurement was swine pancreatic lipase (product of Sigma) that had been diluted to a concentration of 400 U/ml with the buffer.
To start the enzyme reaction, 50 μl of buffered 4-UMO solution and 25 μl of distilled water (or an aqueous solution of sample) were loaded and mixed on a 96-well microplate and 25 μl of the buffered lipase solution was then added. After 30-minute reaction, 100 μl of 0.1 M citrate buffered solution (pH 4.2) was added to quench the reaction and the fluorescence from 4-methylumbelliferone (excitation wavelength: 355 nm; fluorescence wavelength: 460 nm), which was generated by the reaction, was measured with a fluorescence plate reader (Fluoroskan Asent CF: product of Labsystems).
The inhibitory activity of the test sample was determined as its amount that would provide 50% inhibition of lipase activity (IC50 in μl) compared to the activity of the control (distilled water).
The lipase inhibitory activities of six compounds (dimers of OHBFs and their trimer), as well as epigallocatechin gallate (EGCG) were measured in accordance with Example 1 and the results are shown in Table 1.

The nature of test [2]: Superoxide anion radical scavenging activity (hypoxanthine-xanthine oxidase reaction, ESR with DMPO). Conditions: O2- generated by hypoxanthine-xanthine oxidase, DMPO trapping agent. The method, then:
The superoxide anion radical scavenging activity was measured by the method to be described in Example 5. Briefly, O2^− was generated by means of hypoxanthine-xanthine oxidase reaction and 5,5-dimethyl-1-pyrrolin-N-oxide was used as a trapping agent to perform measurement by ESR. Measurements were conducted in the presence or absence of compounds of the present invention and the results were expressed as IC50 or the amount of a sample that provided 50% suppression of O2^− generation.
Evaluation was made of the activity for scavenging superoxide anion radicals generated by hipoxanthine-xanthine oxidase reaction, a kind of active oxygen.
After preparing (1) 2 mM hypoxanthine solution (dissolved in 0.1 M phosphate buffered solution at pH 7.4) and (2) 5.5 mM diethylenetriamine-pentaacetic acid (dissolved in 0.1 M phosphate buffered solution at pH 7.4), 5.0 ml of the solution (1), 3.5 ml of the solution (2), and 1.5 ml of 5,5-dimethyl-1-pyrrolin-N-oxide (DMPO, product of LABOTECH) were mixed to make reagent 1. A 50-μl portion of reagent 1 was put in a 1.5-ml microtube and incubated at 37° C. for 4 minutes. To the incubated reagent 1, a methanol solution of the sample was added in an amount of 20 μl and then 50 μl of xanthine oxidase (0.4 units/ml) was added, followed by stirring for 10 seconds. The reaction mixture was injected into a hematocrit tube, which was set in an ESR apparatus and sweeping in a magnetic field was started 60 seconds after addition of xanthine oxidase. The conditions of ESR measurement were as follows: Power, 4 mW; C. Field, 335.5 mT, SwWid (±), 5 mT; SwTime, 1 min; ModWid, 0.1 mT; Amp, 160; TimeC, 0.1 sec; Temperature, 20° C.
Among the ESR signals from DMPO-OOH, the signal of the lowest field strength was compared in height to the internal standard Mn^2+ signal and the ratio (S/M) was assumed to represent the amount of O2^− and the O2^− scavenging activity was calculated by the following formula: O2^− scavenging activity(%)=100−{100×(S/M in the presence of the sample)/(S/M in the absence of the sample)} Results: […]

Take `Oc1cc([C@H]2Oc3cc(O)c(Cc4c(O)cc(O)c5c4O[C@H](c4cc(O)c(O)c(O)c4)[C@H](O)C5)c(O)c3C[C@H]2O)cc(O)c1O` [Didesgalloyl oolong homobisflavan B (6), didesgalloyl oolong homobisflavan B]: the IC50 (usually the concentration needed to halve the response being measured) in test [1] came out at 2.08 µM. For `O=C(O[C@@H]1Cc2c(O)cc(O)cc2O[C@@H]1c1cc(O)c(O)c(O)c1)c1cc(O)c(O)c(O)c1` [Epigallocathechin 3-O-gallate (7), (−)-epigallocatechin-3-O-gallate, reference compound], the IC50 in test [2] worked out at 14 µM. As for `O=C(O[C@@H]1Cc2c(O)cc(O)c(Cc3c(O)cc(O)c4c3O[C@H](c3cc(O)c(O)c(O)c3)[C@H](OC(=O)c3cc(O)c(O)c(O)c3)C4)c2O[C@@H]1c1cc(O)c(O)c(O)c1)c1cc(O)c(O)c(O)c1` [Oolong homobisflavan A (1), oolong homobisflavan A], the concentration for half-maximal inhibition (IC50) in test [1] was determined as 0.049 µM.

As to `O=C(O[C@@H]1Cc2c(cc(O)c(Cc3c(O)cc(O)c4c3O[C@H](c3cc(O)c(O)c(O)c3)[C@H](OC(=O)c3cc(O)c(O)c(O)c3)C4)c2O)O[C@@H]1c1cc(O)c(O)c(O)c1)c1cc(O)c(O)c(O)c1` [Oolong homobisflavan B (2), oolong homobisflavan B], the IC50 in test [1] worked out at 0.108 µM. As to `O=C(O[C@@H]1Cc2c(cc(O)c(Cc3c(O)cc4c(c3O)C[C@@H](OC(=O)c3cc(O)c(O)c(O)c3)[C@@H](c3cc(O)c(O)c(O)c3)O4)c2O)O[C@@H]1c1cc(O)c(O)c(O)c1)c1cc(O)c(O)c(O)c1` [Oolong homobisflavan C (3), oolong homobisflavan C], the IC50 in test [2] was determined as 6.2 µM. Besides, in test [1], the “lipase inhibitory activity compared with EGCG” value was “potent lipase inhibitory activity compared with EGCG” and the IC50 turned out to be 0.097 µM. The matching figures for `O=C(O[C@@H]1Cc2c(O)cc(O)c(Cc3c(O)c(Cc4c(O)cc(O)c5c4O[C@H](c4cc(O)c(O)c(O)c4)[C@H](OC(=O)c4cc(O)c(O)c(O)c4)C5)c4c(c3O)C[C@@H](OC(=O)c3cc(O)c(O)c(O)c3)[C@@H](c3cc(O)c(O)c(O)c3)O4)c2O[C@@H]1c1cc(O)c(O)c(O)c1)c1cc(O)c(O)c(O)c1` [Trimer (4)]: 10.1 µM, “potent lipase inhibitory activity compared with EGCG” and 0.129 µM. Take `O=C(O[C@@H]1Cc2c(O)cc(O)c(Cc3c(O)cc(O)c4c3O[C@H](c3cc(O)c(O)c(O)c3)[C@H](O)C4)c2O[C@@H]1c1cc(O)c(O)c(O)c1)c1cc(O)c(O)c(O)c1` [monodesgalloyl oolong homobisflavan A]: in test [1], the IC50 stood at 0.271 µM.
